Key:
[1] = tested on: Wnt/β-catenin signal transduction (β-catenin activity) in HEK293 cell line; assay: Cell based Wnt agonist screening system (Tcf/Lef firefly luciferase reporter) in HEK293 cell line; design: species or system human
From the text: (§1) Two kinds of human cancer cell lines HEK293 and SW480 were used to determine the ex vivo activity of the compounds according to one exemplary embodiment of the present invention.
(§2) In order to determine the activity of the wnt/β-catenin signal transduction in each cancer cell line, the present inventors introduced a gene as shown in FIG. 1 into cells, the gene having binding sites (5× TCFs) of Tcf/Lef transcription regulation protein to which β-catenin binds and having a firefly fluorescent protein (firefly luciferase) as a marker that can determine the activity of the Tcf/Lef transcription regulation protein. Then, the present inventors constructed a cell based Wnt agonist screening system by treating the gene-introduced cells with G418 to obtain a single clone of a cell line whose Tcf/Lef transcription regulation protein is continuously expressed due to the introduction of the gene. […]
(§3) When the prepared cell line was treated with lithium chloride (LiCl) that is a positive control in the cell based Wnt agonist screening system as the control for determining the Wnt agonist activity of the isoxazole derivative according to one exemplary embodiment of the present invention, an expression level of the fluorescent protein was measured, and plotted in a graph as shown in FIG. 3. […]

[2] = tested on: Wnt/β-catenin signal transduction (β-catenin activity) in SW480 cell line; assay: Cell based Wnt agonist screening system (Tcf/Lef firefly luciferase reporter) in SW480 cell line; design: species or system human; details: Conc. 20000 μM, control that defines 100%
From the text: as §1, §2, §3

Compound | Emax at 120 µM ([1]; Homo sapiens, Conc. 120 μM, 24-hour treatment, relative to LiCl 20 mM = 100%, read-out: Relative Max. Activity (%)) | Relative Max. Activity (%) [2] | Relative Max. Activity (%) ([1]; Conc. 20000 μM, control that defines 100%)
Nc1ccc(-c2cc(C(=O)NCCCn3ccnc3)no2)cc1 [Derivative 48, 5-(4-amino-phenyl)-isoxazole-3-carboxylic acid (3-imidazol-1-yl-propyl)-amide] | 246% |  | 
[Cl-].[Li+] [LiCl, lithium chloride, reference compound] |  | 100% | 100%

— patent publication US8518978B2, “Pharmaceutical composition for prevention and treatment of restenosis comprising isoxazole derivatives” (SK Biopharmaceuticals Co., Ltd., priority 2007, dated 2013)
